# According to PubChem BioAssay (NCI):
#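 Compound exposure: 48 hours, 5 concentrations, 96-well plates. TGI marks complete inhibition of growth.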
# Legend:
# Test in all cases: DTP human tumour cell line panel, 48 h
# UACC-62 melanoma = tested on: UACC-62 melanoma
# M14 melanoma = tested on: M14 melanoma
# COLO 205 colon = tested on: COLO 205 colon
# HCC-2998 colon = tested on: HCC-2998 colon
# NCI-H23 lung = tested on: NCI-H23 lung
# MDA-N = tested on: MDA-N
# HOP-62 NSCLC = tested on: HOP-62 NSCLC
# A549 NSCLC = tested on: A549 NSCLC
# UACC-257 melanoma = tested on: UACC-257 melanoma
# PC-3 prostate = tested on: PC-3 prostate
# K-562 leukemia = tested on: K-562 leukemia
# MDA-MB-435 = tested on: MDA-MB-435
# T-47D breast = tested on: T-47D breast
# MOLT-4 leukemia = tested on: MOLT-4 leukemia
# DU-145 prostate = tested on: DU-145 prostate
# 786-0 renal = tested on: 786-0 renal
# HL-60(TB) leukemia = tested on: HL-60(TB) leukemia
# CCRF-CEM leukemia = tested on: CCRF-CEM leukemia
# SK-MEL-5 melanoma = tested on: SK-MEL-5 melanoma
# ACHN renal = tested on: ACHN renal
# U251 CNS = tested on: U251 CNS
# HCT-15 colon = tested on: HCT-15 colon
# OVCAR-4 ovarian = tested on: OVCAR-4 ovarian
# BT-549 breast = tested on: BT-549 breast
# SF-295 CNS = tested on: SF-295 CNS
# NCI/ADR-RES ovarian = tested on: NCI/ADR-RES ovarian
# EKVX NSCLC = tested on: EKVX NSCLC
# SW-620 colon = tested on: SW-620 colon
# SK-OV-3 ovarian = tested on: SK-OV-3 ovarian
# NCI-H460 lung = tested on: NCI-H460 lung
# HT29 colon = tested on: HT29 colon
# A498 renal = tested on: A498 renal
# SNB-75 CNS = tested on: SNB-75 CNS
# OVCAR-5 ovarian = tested on: OVCAR-5 ovarian
# TK-10 renal = tested on: TK-10 renal
# SNB-19 CNS = tested on: SNB-19 CNS
# SR leukemia = tested on: SR leukemia
# IGROV1 ovarian = tested on: IGROV1 ovarian
# RPMI-8226 leukemia = tested on: RPMI-8226 leukemia
# OVCAR-8 ovarian = tested on: OVCAR-8 ovarian
# MCF7 breast = tested on: MCF7 breast
# NCI-H226 lung = tested on: NCI-H226 lung
# SF-268 CNS = tested on: SF-268 CNS
# HOP-92 NSCLC = tested on: HOP-92 NSCLC
# MALME-3M melanoma = tested on: MALME-3M melanoma
# SN12C renal = tested on: SN12C renal
# OVCAR-3 ovarian = tested on: OVCAR-3 ovarian
# SK-MEL-28 melanoma = tested on: SK-MEL-28 melanoma
# HCT-116 colon = tested on: HCT-116 colon
# UO-31 renal = tested on: UO-31 renal
# MDA-MB-231 breast = tested on: MDA-MB-231 breast
# KM12 colon = tested on: KM12 colon
# SK-MEL-2 melanoma = tested on: SK-MEL-2 melanoma
# SF-539 CNS = tested on: SF-539 CNS
# CAKI-1 renal = tested on: CAKI-1 renal
# HS 578T breast = tested on: HS 578T breast
# LOX IMVI melanoma = tested on: LOX IMVI melanoma
# NCI-H522 lung = tested on: NCI-H522 lung
# RXF 393 renal = tested on: RXF 393 renal
smiles,measurement,setting,value
O=C(O)c1cnc2[nH]ccn2c1=O,TGI,UACC-62 melanoma,> 100 µM
same,TGI,M14 melanoma,> 100 µM
same,TGI,COLO 205 colon,> 100 µM
same,TGI,HCC-2998 colon,> 100 µM
same,TGI,NCI-H23 lung,> 100 µM
same,TGI,MDA-N,> 100 µM
same,TGI,HOP-62 NSCLC,> 100 µM
same,TGI,A549 NSCLC,> 100 µM
same,TGI,UACC-257 melanoma,> 100 µM
same,TGI,PC-3 prostate,> 100 µM
same,TGI,K-562 leukemia,> 100 µM
same,TGI,MDA-MB-435,> 100 µM
same,TGI,T-47D breast,> 100 µM
same,TGI,MOLT-4 leukemia,> 100 µM
same,TGI,DU-145 prostate,> 100 µM
same,TGI,786-0 renal,> 100 µM
same,TGI,HL-60(TB) leukemia,> 100 µM
same,TGI,CCRF-CEM leukemia,> 100 µM
same,TGI,SK-MEL-5 melanoma,> 100 µM
same,TGI,ACHN renal,> 100 µM
same,TGI,U251 CNS,> 100 µM
same,TGI,HCT-15 colon,> 100 µM
same,TGI,OVCAR-4 ovarian,> 100 µM
same,TGI,BT-549 breast,> 100 µM
same,TGI,SF-295 CNS,> 100 µM
same,TGI,NCI/ADR-RES ovarian,> 100 µM
same,TGI,EKVX NSCLC,> 100 µM
same,TGI,SW-620 colon,> 100 µM
same,TGI,SK-OV-3 ovarian,> 100 µM
same,TGI,NCI-H460 lung,> 100 µM
same,TGI,HT29 colon,> 100 µM
same,TGI,A498 renal,> 100 µM
same,TGI,SNB-75 CNS,> 100 µM
same,TGI,OVCAR-5 ovarian,> 100 µM
same,TGI,TK-10 renal,> 100 µM
same,TGI,SNB-19 CNS,> 100 µM
same,TGI,SR leukemia,> 100 µM
same,TGI,IGROV1 ovarian,> 100 µM
same,TGI,RPMI-8226 leukemia,> 100 µM
same,TGI,OVCAR-8 ovarian,> 100 µM
same,TGI,MCF7 breast,> 100 µM
same,TGI,NCI-H226 lung,> 100 µM
same,TGI,SF-268 CNS,> 100 µM
same,TGI,HOP-92 NSCLC,> 100 µM
same,TGI,MALME-3M melanoma,> 100 µM
same,TGI,SN12C renal,> 100 µM
same,TGI,OVCAR-3 ovarian,> 100 µM
same,TGI,SK-MEL-28 melanoma,> 100 µM
same,TGI,HCT-116 colon,> 100 µM
same,TGI,UO-31 renal,> 100 µM
same,TGI,MDA-MB-231 breast,> 100 µM
N#CCCC1(CCC#N)CCCCCCCCC(CCC#N)(CCC#N)C(=O)C1=O,TGI,UACC-62 melanoma,> 100 µM
same,TGI,M14 melanoma,> 100 µM
same,TGI,COLO 205 colon,> 100 µM
same,TGI,HCC-2998 colon,> 100 µM
same,TGI,NCI-H23 lung,> 100 µM
same,TGI,MDA-N,> 100 µM
same,TGI,HOP-62 NSCLC,> 100 µM
same,TGI,A549 NSCLC,> 100 µM
same,TGI,UACC-257 melanoma,> 100 µM
same,TGI,PC-3 prostate,> 100 µM
same,TGI,KM12 colon,> 100 µM
same,TGI,K-562 leukemia,> 100 µM
same,TGI,MDA-MB-435,> 100 µM
same,TGI,T-47D breast,> 100 µM
same,TGI,SK-MEL-2 melanoma,> 100 µM
same,TGI,DU-145 prostate,> 100 µM
same,TGI,786-0 renal,> 100 µM
same,TGI,HL-60(TB) leukemia,> 100 µM
same,TGI,SF-539 CNS,> 100 µM
same,TGI,ACHN renal,> 100 µM
same,TGI,U251 CNS,> 100 µM
same,TGI,HCT-15 colon,> 100 µM
same,TGI,OVCAR-4 ovarian,> 100 µM
same,TGI,SF-295 CNS,> 100 µM
same,TGI,NCI/ADR-RES ovarian,> 100 µM
same,TGI,EKVX NSCLC,> 100 µM
same,TGI,SW-620 colon,> 100 µM
same,TGI,CAKI-1 renal,> 100 µM
same,TGI,SK-OV-3 ovarian,> 100 µM
same,TGI,NCI-H460 lung,> 100 µM
same,TGI,HT29 colon,> 100 µM
same,TGI,SNB-75 CNS,> 100 µM
same,TGI,OVCAR-5 ovarian,> 100 µM
same,TGI,TK-10 renal,> 100 µM
same,TGI,SNB-19 CNS,> 100 µM
same,TGI,SR leukemia,> 100 µM
same,TGI,HS 578T breast,> 100 µM
same,TGI,LOX IMVI melanoma,> 100 µM
same,TGI,NCI-H522 lung,88.2 µM
same,TGI,OVCAR-8 ovarian,> 100 µM
same,TGI,MCF7 breast,> 100 µM
same,TGI,NCI-H226 lung,> 100 µM
same,TGI,SF-268 CNS,> 100 µM
same,TGI,HOP-92 NSCLC,> 100 µM
same,TGI,MALME-3M melanoma,> 100 µM
same,TGI,SN12C renal,> 100 µM
same,TGI,OVCAR-3 ovarian,> 100 µM
same,TGI,SK-MEL-28 melanoma,> 100 µM
same,TGI,HCT-116 colon,> 100 µM
O=C1/C(=C/c2cccc(Br)c2)CSC/C1=C\c1cccc(Br)c1,TGI,UACC-62 melanoma,3.14 µM
same,TGI,RXF 393 renal,3.79 µM
same,TGI,M14 melanoma,6.14 µM
same,TGI,COLO 205 colon,8.53 µM
same,TGI,HCC-2998 colon,3.3 µM
same,TGI,NCI-H23 lung,9.03 µM
same,TGI,MDA-N,6.98 µM
same,TGI,HOP-62 NSCLC,6.74 µM
same,TGI,A549 NSCLC,41.5 µM
same,TGI,UACC-257 melanoma,5.9 µM
same,TGI,PC-3 prostate,10.4 µM
same,TGI,KM12 colon,4.43 µM
same,TGI,K-562 leukemia,6.74 µM
same,TGI,T-47D breast,21.1 µM
same,TGI,SK-MEL-2 melanoma,12 µM
same,TGI,DU-145 prostate,24.3 µM
same,TGI,786-0 renal,11.8 µM
same,TGI,CCRF-CEM leukemia,6.45 µM
same,TGI,SK-MEL-5 melanoma,3.59 µM
same,TGI,SF-539 CNS,13.6 µM
same,TGI,ACHN renal,9.88 µM
same,TGI,U251 CNS,3.53 µM
same,TGI,HCT-15 colon,15.4 µM
same,TGI,OVCAR-4 ovarian,13.1 µM
same,TGI,BT-549 breast,4.47 µM
same,TGI,SF-295 CNS,5.14 µM
same,TGI,NCI/ADR-RES ovarian,25.5 µM
same,TGI,EKVX NSCLC,19.9 µM
same,TGI,SW-620 colon,11.2 µM
same,TGI,CAKI-1 renal,6.06 µM
same,TGI,SK-OV-3 ovarian,42 µM
same,TGI,NCI-H460 lung,7.26 µM
same,TGI,HT29 colon,5.67 µM
same,TGI,OVCAR-5 ovarian,15.5 µM
same,TGI,TK-10 renal,16.8 µM
same,TGI,SNB-19 CNS,10.6 µM
same,TGI,SR leukemia,> 100 µM
same,TGI,IGROV1 ovarian,7.11 µM
same,TGI,RPMI-8226 leukemia,6.42 µM
same,TGI,LOX IMVI melanoma,4.82 µM
same,TGI,NCI-H522 lung,4.14 µM
same,TGI,OVCAR-8 ovarian,9.52 µM
same,TGI,MCF7 breast,20.5 µM
same,TGI,SF-268 CNS,24.2 µM
same,TGI,HOP-92 NSCLC,7.43 µM
same,TGI,MALME-3M melanoma,4.43 µM
same,TGI,SN12C renal,5.22 µM
same,TGI,OVCAR-3 ovarian,9.98 µM
same,TGI,SK-MEL-28 melanoma,7.12 µM
same,TGI,HCT-116 colon,4.33 µM
same,TGI,UO-31 renal,3.71 µM
same,TGI,MDA-MB-231 breast,48.9 µM
N#Cc1c(N)sc2c1-c1ccccc1OC2,TGI,UACC-62 melanoma,> 100 µM
same,TGI,RXF 393 renal,41.3 µM
same,TGI,M14 melanoma,> 100 µM
same,TGI,COLO 205 colon,> 100 µM
same,TGI,HCC-2998 colon,> 100 µM
same,TGI,NCI-H23 lung,> 100 µM
same,TGI,MDA-N,67.1 µM
same,TGI,HOP-62 NSCLC,> 100 µM
same,TGI,A549 NSCLC,> 100 µM
same,TGI,UACC-257 melanoma,> 100 µM
same,TGI,PC-3 prostate,> 100 µM
same,TGI,KM12 colon,> 100 µM
same,TGI,K-562 leukemia,> 100 µM
same,TGI,MDA-MB-435,> 100 µM
same,TGI,MOLT-4 leukemia,> 100 µM
same,TGI,SK-MEL-2 melanoma,> 100 µM
same,TGI,DU-145 prostate,> 100 µM
same,TGI,HL-60(TB) leukemia,82.1 µM
same,TGI,CCRF-CEM leukemia,36 µM
same,TGI,SK-MEL-5 melanoma,> 100 µM
same,TGI,SF-539 CNS,> 100 µM
same,TGI,ACHN renal,> 100 µM
same,TGI,U251 CNS,> 100 µM
same,TGI,HCT-15 colon,> 100 µM
same,TGI,OVCAR-4 ovarian,88 µM
same,TGI,BT-549 breast,> 100 µM
same,TGI,NCI/ADR-RES ovarian,> 100 µM
same,TGI,EKVX NSCLC,31 µM
same,TGI,SW-620 colon,> 100 µM
same,TGI,SK-OV-3 ovarian,> 100 µM
same,TGI,NCI-H460 lung,> 100 µM
same,TGI,HT29 colon,> 100 µM
same,TGI,A498 renal,> 100 µM
same,TGI,OVCAR-5 ovarian,> 100 µM
same,TGI,TK-10 renal,> 100 µM
same,TGI,SNB-19 CNS,> 100 µM
same,TGI,SR leukemia,47.9 µM
same,TGI,IGROV1 ovarian,> 100 µM
same,TGI,RPMI-8226 leukemia,> 100 µM
same,TGI,LOX IMVI melanoma,> 100 µM
same,TGI,MCF7 breast,> 100 µM
same,TGI,NCI-H226 lung,> 100 µM
same,TGI,SF-268 CNS,> 100 µM
same,TGI,HOP-92 NSCLC,> 100 µM
same,TGI,MALME-3M melanoma,> 100 µM
same,TGI,SN12C renal,68.6 µM
same,TGI,OVCAR-3 ovarian,61.7 µM
same,TGI,SK-MEL-28 melanoma,> 100 µM
same,TGI,HCT-116 colon,82.8 µM
same,TGI,UO-31 renal,70 µM
same,TGI,MDA-MB-231 breast,> 100 µM
